Test results published in PMC5902538, “Metabolic benefits of 1-(3-(4-(o-tolyl)piperazin-1-yl)propyl)pyrrolidin-2-one: a non-selective α-adrenoceptor antagonist” (Journal of Endocrinological Investigation, 2017).

How the values were obtained:
Assay type in all cases: cell-based
α2B-adrenoceptor = target: T1, α2B-adrenoceptor (Homo sapiens, UniProt P18089); test: intrinsic activity (antagonist) assay in ready-to-use cells stably expressing the receptor (Perkin Elmer)
T1 construct: gene ADRA2B
T1 sequence (P18089 1-450): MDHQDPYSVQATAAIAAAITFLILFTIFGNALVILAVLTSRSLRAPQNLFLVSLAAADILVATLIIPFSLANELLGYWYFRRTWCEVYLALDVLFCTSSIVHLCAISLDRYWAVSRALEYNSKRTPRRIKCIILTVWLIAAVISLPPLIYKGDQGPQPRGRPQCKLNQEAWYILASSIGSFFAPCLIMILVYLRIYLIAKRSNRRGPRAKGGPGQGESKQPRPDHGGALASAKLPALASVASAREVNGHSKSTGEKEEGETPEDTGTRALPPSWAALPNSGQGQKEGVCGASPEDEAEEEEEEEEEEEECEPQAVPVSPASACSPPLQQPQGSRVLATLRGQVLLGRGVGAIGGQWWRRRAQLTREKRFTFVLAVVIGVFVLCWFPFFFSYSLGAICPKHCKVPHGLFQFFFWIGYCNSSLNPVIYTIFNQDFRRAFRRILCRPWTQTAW

α1B-adrenoceptor = target: T2, α1B-adrenoceptor (Homo sapiens, UniProt P35368); test: as above
T2 construct: gene ADRA1B
T2 sequence (P35368 1-520): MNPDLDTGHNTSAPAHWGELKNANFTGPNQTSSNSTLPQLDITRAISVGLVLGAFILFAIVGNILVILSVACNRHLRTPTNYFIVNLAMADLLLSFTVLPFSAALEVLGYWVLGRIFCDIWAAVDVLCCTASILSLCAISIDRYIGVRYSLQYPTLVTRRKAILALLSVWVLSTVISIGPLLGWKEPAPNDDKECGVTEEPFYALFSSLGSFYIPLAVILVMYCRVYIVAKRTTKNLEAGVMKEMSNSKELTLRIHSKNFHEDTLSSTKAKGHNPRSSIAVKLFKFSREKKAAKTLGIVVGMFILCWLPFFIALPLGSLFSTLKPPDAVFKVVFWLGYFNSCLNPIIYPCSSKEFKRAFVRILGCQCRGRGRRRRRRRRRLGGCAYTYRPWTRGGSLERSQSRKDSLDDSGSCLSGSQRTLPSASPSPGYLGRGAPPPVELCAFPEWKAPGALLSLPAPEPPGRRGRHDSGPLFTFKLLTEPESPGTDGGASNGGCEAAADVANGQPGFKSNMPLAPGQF

α1A-adrenoceptor = target: T3, α1A-adrenoceptor (Homo sapiens, UniProt P35348); test: intrinsic activity (antagonist) assay in ready-to-use cells stably expressing the receptor (Invitrogen)
T3 construct: gene ADRA1A
T3 sequence (P35348 1-466): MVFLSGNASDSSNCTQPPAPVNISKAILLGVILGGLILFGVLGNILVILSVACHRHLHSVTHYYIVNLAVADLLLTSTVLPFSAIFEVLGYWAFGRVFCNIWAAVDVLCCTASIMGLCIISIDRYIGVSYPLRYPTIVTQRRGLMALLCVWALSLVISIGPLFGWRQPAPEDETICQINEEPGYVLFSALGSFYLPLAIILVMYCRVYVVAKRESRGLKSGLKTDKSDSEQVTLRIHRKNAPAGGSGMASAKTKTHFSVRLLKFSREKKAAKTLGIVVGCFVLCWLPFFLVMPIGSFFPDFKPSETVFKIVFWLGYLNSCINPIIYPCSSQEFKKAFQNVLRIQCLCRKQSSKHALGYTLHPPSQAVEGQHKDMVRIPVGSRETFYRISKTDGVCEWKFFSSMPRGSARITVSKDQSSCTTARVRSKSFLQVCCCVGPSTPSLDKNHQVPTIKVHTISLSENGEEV

α2A-adrenoceptor = target: T4, α2A-adrenoceptor (Homo sapiens, UniProt P08913); test: as above
T4 construct: gene ADRA2A
T4 sequence (P08913 1-465): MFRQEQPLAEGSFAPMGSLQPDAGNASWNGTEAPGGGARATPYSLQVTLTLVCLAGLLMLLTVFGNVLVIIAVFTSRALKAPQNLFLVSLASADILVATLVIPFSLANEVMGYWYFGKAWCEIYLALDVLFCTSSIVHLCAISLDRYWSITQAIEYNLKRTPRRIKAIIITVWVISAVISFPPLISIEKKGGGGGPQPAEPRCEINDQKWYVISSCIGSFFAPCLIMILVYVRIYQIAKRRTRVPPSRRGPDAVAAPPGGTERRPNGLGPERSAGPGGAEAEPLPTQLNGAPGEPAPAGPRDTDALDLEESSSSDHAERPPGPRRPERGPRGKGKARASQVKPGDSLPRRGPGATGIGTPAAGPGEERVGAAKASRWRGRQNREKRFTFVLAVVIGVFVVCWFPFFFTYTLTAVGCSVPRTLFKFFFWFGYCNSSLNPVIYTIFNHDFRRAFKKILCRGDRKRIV

Work on Cc1ccccc1N1CCN(CCCN2CCCC2=O)CC1 [EP-47, 1-(3-(4-(o-tolyl)piperazin-1-yl)propyl)pyrrolidin-2-one] yielded an IC50 (α2B-adrenoceptor) of 2070 ± 690 nM, an IC50 (α1B-adrenoceptor) of 32.6 ± 0.69 nM and an IC50 (α1A-adrenoceptor) of 42.5 ± 11.2 µM. It also gave an IC50 (α2A-adrenoceptor) of 213 ± 32 nM.
